# Source: patent US20100144712A1 (priority 2007, published 2010)
# Read-outs that look alike come from different tables or passages of the source.
# How the values were obtained:
# Assay type in all cases: cell-based
# [1] = system: Candida albican ATCC MYA-575; test: In vitro antifungal activity (MIC80), Candida albican ATCC MYA-575; settings: Table 2, MYA 575; for MIC80: Candida, read-out: Minimal inhibitory concentration (MIC80)
# Outline: (§1)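 Broth microdilution in RPMI 1640 with 2% (v/v) final DMSO, test solutions 0.25 to 256 […]. Inoculum of 1.0×10^3–5.0×10^3 CFU/ml came from colonies grown 2–3 days at 35 °C, and alamarBlue was added. MIC80 is the lowest concentration reducing growth by 80% versus untreated control.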
# [2] = system: Aspergillus terreus ATCC 28301; test: In vitro antifungal activity (MIC80), Aspergillus terreus ATCC 28301; settings: Table 3, ATCC 28301; for MIC80: Aspergillus terreus, ATCC28301, read-out: Minimal inhibitory concentration (MIC80)
# Method: (§2) In vitro antifungal activities of the inventive antifungal compounds were evaluated using test strains including Candida albican (ATCC 90873, 204276, 62342, 64124, 64550, 96901, MYA-573, MYA-574, MYA-575, MYA-576, MYA-1003) and Aspergillus fumigatus (ATCC 16424). Test samples and positive control samples were prepared by dissolving the inventive compounds and comparative compounds, i.e., amphotericin B, fluconazole and itraconazole, in DMSO, respectively, and each successively diluted with medium to obtain test and positive control solutions having test compound concentrations of 0.125 μg/ml to a maximum concentration not generating turbidity. Minimal inhibitory concentration (MIC80) of each compound was determined as the lowest concentration of the test compounds required to reduce growth by 80% relative to a control strain not treated.
# (§3) 3) Preparation of test samples: the inventive compounds and comparative compounds were each diluted with DMSO to obtain 1 to 2 ml of a test sample in a concentration of 100-folds of the determining maximum concentration (256 μg/ml).
# (§4) The test samples were each successively diluted with RPMI 1640 to obtain test solutions having concentrations of […] in a 12×75 mm sterilized disposable culture tube. The final concentration of DMSO was adjusted to […] (v/v).
# (§5) Candida albican strains were each subcultured in Sabourad Dextrose Agar, YM Agar or Potato Dextrose Agar medium at 35° C. for 2˜3 days. In the case of yeasts, a single colony was taken from prominent colonies and suspended in 0.85% sterile physiological saline solution and the turbidity of the suspension was adjusted to 80˜82% at 530 nm, and then diluted 50-fold with RPMI 1640 medium to 1.0×10^3˜5.0×10^3 CFU/ml. The turbidity of fungi was adjusted to 80˜82% and the suspension was diluted 50-fold to […]. Aspergillus fumigatus strains were subcultured in Malt Extract Agar for 7˜10 days, and a single colony was taken from prominent colonies and suspended in 0.85% sterile physiological saline solution and the suspension was adjusted to 0.108 at 530 nm, and then diluted 1000-fold with RPMI 1640 medium to 0.4×10^2˜5×10^4 CFU/ml. The turbidity of fungi was adjusted to 80˜82% and the suspension was diluted 50-fold to 0.4102˜0.5104 CFU/ml.
# (§6) The strain solutions thus obtained were each seeded into a sterilized 96-well microplate, 0.1 ml of each test solution were added thereto, and […] of alamarblue was treated to each well (Biosource, #DAL1100). This procedure was repeated 2 times.
# (§7) Minimal inhibitory concentration (MIC80) of each compound was determined as the lowest concentration of the test compounds required to reduce growth by 80% relative to a control strain not treated.
# (§8) MIC80 of each of the compounds of which antifungal activities can be confirmed by Table 2 was determined using other test strains, i.e., Aspergillus fumigatus ATCC 16424 and MYA-1163, Aspergillus terreus ATCC 28301, Aspergillus flavus ATCC MYA-1004, and Aspergillus niger ATCC 9142.
# [3] = system: Candida albican ATCC MYA-574; test: In vitro antifungal activity (MIC80), Candida albican ATCC MYA-574; settings: Table 2, MYA 574; for MIC80: Candida, read-out: Minimal inhibitory concentration (MIC80)
# Outline: as §1
# [4] = system: Candida albican ATCC MYA-576; test: In vitro antifungal activity (MIC80), Candida albican ATCC MYA-576; settings: Table 2, MYA 576; for MIC80: Candida, read-out: Minimal inhibitory concentration (MIC80)
# Outline: as §1
# [5] = system: Candida albican ATCC 64550; test: In vitro antifungal activity (MIC80), Candida albican ATCC 64550; settings: Table 2, 64550; for MIC80: Candida, ATCC64550, read-out: Minimal inhibitory concentration (MIC80)
# Outline: as §1
# [6] = system: Candida albican ATCC MYA-1003; test: In vitro antifungal activity (MIC80), Candida albican ATCC MYA-1003; settings: Table 2, MYA 1003; for MIC80: Candida, read-out: Minimal inhibitory concentration (MIC80)
# Outline: as §1
# [7] = system: Candida albican ATCC 90873; test: In vitro antifungal activity (MIC80), Candida albican ATCC 90873; settings: Table 2, ATCC 90873; for MIC80: Candida, ATCC90873, read-out: Minimal inhibitory concentration (MIC80)
# Outline: as §1
# [8] = system: Candida albican ATCC 96901; test: In vitro antifungal activity (MIC80), Candida albican ATCC 96901; settings: Table 2, ATCC 96901; for MIC80: Candida, ATCC96901, read-out: Minimal inhibitory concentration (MIC80)
# Outline: as §1
# [9] = system: Aspergillus flavus ATCC MYA-1004; test: In vitro antifungal activity (MIC80), Aspergillus flavus ATCC MYA-1004; settings: Table 3, MYA-1004; for MIC80: Aspergillus flavus, read-out: Minimal inhibitory concentration (MIC80)
# Method: as §2, §3, §4, §5, §6, §7, §8
# [10] = system: Candida albican ATCC 62342; test: In vitro antifungal activity (MIC80), Candida albican ATCC 62342; settings: Table 2, 62342; for MIC80: Candida, ATCC62342, read-out: Minimal inhibitory concentration (MIC80)
# Outline: as §1
# [11] = system: Aspergillus fumigatus MYA-1163; test: In vitro antifungal activity (MIC80), Aspergillus fumigatus MYA-1163; settings: Table 3, MYA-1163; for MIC80: Aspergillus fumigatus, MYA1163, read-out: Minimal inhibitory concentration (MIC80)
# Method: as §2, §3, §4, §5, §6, §7, §8
# [12] = system: Aspergillus fumigatus (ATCC 16424); test: In vitro antifungal activity (MIC80), Aspergillus fumigatus ATCC 16424; settings: for MIC80: Aspergillus fumigatus, read-out: Minimal inhibitory concentration (MIC80)
# Method: as §2
# (§9) 1) Test strain: Candida albican ATCC 90873, 204276, 62342, 64124, 64550, 96901, MYA-573, MYA-574, MYA-575, MYA-576, MYA-1003, and Aspergillus fumigatus ATCC 16424 were commercially obtained from The American Type Culture Collection (ATCC) and subcultured in CHEMON Co. Ltd. (amphotericin B was commercially purchased from Sigma, and fluconazole and itraconazole were prepared according to methods described in British Patent No. 2,099,818; and U.S. Pat. No. 4,267,179, respectively).
# (§10) 2) Medium and culture condition: Candida albican was cultured in Sabourad Dextrose Agar, YM Agar or Potato Dextrose Agar according to ATCC information at a temperature of 37° C., 35° C., 30° C. or 25° C. Aspergillus fumigatus was cultured in Malt Extract Agar or Potato Dextrose Agar at a temperature ranging from 24 to 27° C.
# as §3, §4
# (§11) 5) Preparation of strain solution and inoculation
# as §5, §6, §7, §8
# [13] = system: Aspergillus niger ATCC 9142; test: In vitro antifungal activity (MIC80), Aspergillus niger ATCC 9142; settings: Table 3, ATCC 9142; for MIC80: Aspergillus niger, ATCC9142, read-out: Minimal inhibitory concentration (MIC80)
# Method: as §2, §3, §4, §5, §6, §7, §8
# [14] = system: Candida albican ATCC 64124; test: In vitro antifungal activity (MIC80), Candida albican ATCC 64124; settings: Table 2, 64124; for MIC80: Candida, ATCC64124, read-out: Minimal inhibitory concentration (MIC80)
# Outline: as §1
# [15] = system: Candida albican ATCC MYA-573; test: In vitro antifungal activity (MIC80), Candida albican ATCC MYA-573; settings: Table 2, MYA 573; for MIC80: Candida, read-out: Minimal inhibitory concentration (MIC80)
# Outline: as §1
# [16] = system: Candida albican ATCC 204276; test: In vitro antifungal activity (MIC80), Candida albican ATCC 204276; settings: ATCC204276, Table 2, 204276, read-out: Minimal inhibitory concentration (MIC80)
# Method: as §2, §9, §10, §3, §4, §11, §5, §6, §7
SMILES,MIC80 [1] [µg/mL],MIC80 [2] [µg/mL],MIC80 [3] [µg/mL],MIC80 [4] [µg/mL],MIC80 [5] [µg/mL],MIC80 [6] [µg/mL],MIC80 [7] [µg/mL],MIC80 [8] [µg/mL],MIC80 [9] [µg/mL],MIC80 [10] [µg/mL],MIC80 [11] [µg/mL],"MIC80 ([12]; ATCC16424, Table 2, ATCC 16424) [µg/mL]","MIC80 ([12]; ATCC16424, Table 3, ATCC 16424) [µg/mL]",MIC80 [13] [µg/mL],MIC80 [14] [µg/mL],MIC80 [15] [µg/mL],MIC80 [16] [µg/mL],further results
"C[C@@H](N1CCN(c2nc3ccc(NCCN4CCOCC4)cc3s2)CC1)[C@](O)(Cn1cncn1)c1ccc(F)cc1F [Example 12, (2R,3R)-3-(4-(6-(2-morpholinoethylamino)benzothiazol-2-yl)piperazin-1-yl)-2-(2,4-difluorophenyl)-1-(1H-1,2,4-triazol-1-yl)butan-2-ol]",1,4,4,0.25,2,8,1,2,4,8,4,2,2,4,4,2,,
"C[C@@H]1[C@H](O)[C@@H](C)/C=C/C=C/C=C/C=C/C=C/C=C/C=C/[C@H](O[C@@H]2O[C@H](C)[C@@H](O)[C@H](N)[C@@H]2O)C[C@@H]2O[C@](O)(C[C@@H](O)C[C@@H](O)[C@H](O)CC[C@@H](O)C[C@@H](O)CC(=O)O[C@H]1C)C[C@H](O)[C@H]2C(=O)O [A, amphotericin B, reference compound]",,,,,,,,,,,,,,,,,,"Minimal inhibitory concentration (MIC80) [1]: 0.5 µg/mL; Minimal inhibitory concentration (MIC80) [2]: 4 µg/mL; Minimal inhibitory concentration (MIC80) [3]: 0.25 µg/mL; Minimal inhibitory concentration (MIC80) [4]: 0.5 µg/mL; Minimal inhibitory concentration (MIC80) [5]: 0.5 µg/mL; Minimal inhibitory concentration (MIC80) [6]: 0.5 µg/mL; Minimal inhibitory concentration (MIC80) [7]: 1 to 2 µg/mL; Minimal inhibitory concentration (MIC80) [8]: 0.25 µg/mL; Minimal inhibitory concentration (MIC80) [9]: 4 µg/mL; Minimal inhibitory concentration (MIC80) [10]: 0.5 µg/mL; Minimal inhibitory concentration (MIC80) [11]: 2 µg/mL; Minimal inhibitory concentration (MIC80) ([12]; Table 2, ATCC 16424): 1 to 2 µg/mL; Minimal inhibitory concentration (MIC80) ([12]; Table 3, ATCC 16424): 0.5 µg/mL; Minimal inhibitory concentration (MIC80) [13]: 0.5 µg/mL; Minimal inhibitory concentration (MIC80) [14]: 0.5 µg/mL; Minimal inhibitory concentration (MIC80) [15]: 0.5 µg/mL"
"C[C@@H](N1CCN(C(=O)c2nc(-c3ccc(F)cc3)ns2)CC1)[C@](O)(Cn1cncn1)c1ccc(F)cc1F [Example 52, (3-(4-fluorophenyl)-1,2,4-thiadiazol-5-yl)(4-((2R,3R)-3-(2,4-difluorophenyl)-3-hydroxy-4-(1H-1,2,4-triazol-1-yl)butan-2-yl)piperazin-1-yl)methanone]",> 128,,> 128,0.125,4,> 128,0.125,32,,4,,1,,,> 128,4,0.125,

# Second part, led by results:
MIC80 [1] [µg/mL],MIC80 [2] [µg/mL],MIC80 [3] [µg/mL],MIC80 [4] [µg/mL],MIC80 [5] [µg/mL],MIC80 [6] [µg/mL],MIC80 [7] [µg/mL],MIC80 [8] [µg/mL],MIC80 [9] [µg/mL],MIC80 [10] [µg/mL],MIC80 [11] [µg/mL],"MIC80 ([12]; ATCC16424, Table 2, ATCC 16424) [µg/mL]","MIC80 ([12]; ATCC16424, Table 3, ATCC 16424) [µg/mL]",MIC80 [13] [µg/mL],MIC80 [14] [µg/mL],MIC80 [15] [µg/mL],MIC80 [16] [µg/mL],SMILES,further results
0.125,0.25,> 128,0.125,0.5,> 128,0.125,> 128,0.25,0.25,0.5,0.25,0.125,1,> 128,0.5,,"CCC(C)n1ncn(-c2ccc(N3CCN(c4ccc(OCC5COC(Cn6cncn6)(c6ccc(Cl)cc6Cl)O5)cc4)CC3)cc2)c1=O (stereo not drawn) [I, itraconazole, reference compound]",
4,,4,0.125,2,> 128,0.25,8,,0.5,,1,,,8,1,0.25,"Cc1ccc(C(=O)c2cnc3sc(C(=O)N4CCN([C@H](C)[C@](O)(Cn5cncn5)c5ccc(F)cc5F)CC4)cn23)cc1 [Example 56, (4-((2R,3R)-3-(2,4-difluorophenyl)-3-hydroxy-4-(1H-1,2,4-triazol-1-yl)butan-2-yl)piperazin-1-yl)(5-(4-methylbenzoyl)-imidazo[2,1-b]-thiazol-2-yl)methanone]",
32,,32,0.125,1,128,0.125,4,,0.125,,0.5,,,4,1,0.125,"C[C@@H](N1CCN(c2nc3ccccc3o2)CC1)[C@](O)(Cn1cncn1)c1ccc(F)cc1F [Example 1, (2R,3R)-3-(4-(benzooxazol-2-yl)piperazin-1-yl)-2-(2,4-difluorophenyl)-1-(1H-1,2,4-triazol-1-yl)butan-2-ol]",
